Test results from US11458189B2, “Cytoprotective drugs” (BALMES TRANSPLANTATION, priority 2017, dated 2022).
Starred links: 1 amine or outer side, 2 acyl side, 3 side chain; linkers in the order of their positions; H or OH if unused. Positions of bridges follow the written chain, without caps; N, C: chain ends. Non-standard residues stand in square brackets, D forms with d. Residues, ends and D or L forms follow the SMILES beside them. *: point of attachment. hTyr(3S-OH,4S-OH,3'-OSO3H) = N[C@H](C(=O)O)[C@H](O)[C@@H](O)c1ccc(O)c(OS(=O)(=O)O)c1; Orn(4R-OH,5R-OH) = O=C([C@H](C[C@@H](O)[C@@H](O)N[*:3])N[*:1])[*:2]; Pro(3S-OH,4S-Me) = C[C@H]1CN[C@H](C(=O)O)[C@H]1O; X1 = CCCCCOc1ccc(-c2cc(-c3ccc(C(=O)*)cc3)no2)cc1; Gln(3R-OH) = NC(=O)C[C@@H](O)[C@H](N)C(=O)O; Hyp = O=C(O)[C@@H]1C[C@@H](O)CN1

System: Human Astrocytes (HA)
Assay: Oxygen and glucose deprivation followed by replenishment, cell survival (calcein AM), HA
Assay type: cell-based
Method: Anidulafungin and micafungin were tested on Human Renal Glomerular Endothelial Cells (HRGEC, Innoprot P10665), on Human Renal Proximal Tubular Epithelial Cells (HRPTEpiC, Innoprot P10662), on Human Astrocytes (HA, caltag SC-1800), on Human Cardiac Microvascular Endothelial Cells (HCMEC, Caltag SC-6000), on Human Hepatic Sinusoidal Endothelial Cells (HHSEC, Caltag SC-5000), on Rat Primary Kidney Glomerular Endothelial cells (Cellbiologics, RN-6014G) and on Bovine Brain Microvascular Endothelial Cells (BBMEC, Caltag SC-B100).
In a first phase, these isolated, purified and cryopreserved cells are thawed and multiplied according to the supplier's recommendations in T75 or T175 flasks pre-coated with 2 μg of fibronectin/[…] (CORNING) for HRGEC, HCMEC, HHSEC and BBMEC, or 2 μg poly-L-lysin/cm^2 (Caltag SC-0403) for HRPTEpiC and HA, or 15 mL/flask 175 cm^2 gelatin-based solution (Cellbiologics) in the presence of endothelial cell supplemented growth medium ECM (P60104, INNOPROT, Caltag, SC-1001) for HRGEC, HCMEC, HHSEC, RPKGEC or BBMEC, or astrocyte cell supplemented growth medium AM (Caltag SC-1801) for HA or epithelial cell supplemented growth medium EpiCM (P60106, INNOPROT) for HRPTEpiC, at 37° C. under 5% CO2 and saturated humidity until their confluency. They are then harvested by trypsinization according to the method described by the supplier for exactly 5 minutes and then reseeded in new flasks a maximum of three times.
To carry out the oxygen and glucose deprivation test followed by their replenishment, the cells will be seeded in 96-well black plates with transparent flat bottom (GREINER). Once a sufficient number of cells has been obtained to allow seeding of 2000 to 15000 cells per well of 96-well plates depending on the cell type, the cells are seeded in these 96-well plates previously coated with an extracellular matrix as listed above for the flasks. The cells are cultured for 5 to 8 days according to the cell type, in the presence of the same growth medium as in the flask as described above except for HRGEC and HRPTEpiC for which DMEM (DUTSCHER) with 1 g/L of supplemented glucose is used, at 37° C. under 5% CO2 and saturated humidity to obtain confluency.
On the first day of oxygen and glucose deprivation, (5th, 6th, 7th or 8th day of culture), the culture conditions are drastically changed. The medium of all plates is removed and replaced by DMEM (DUTSCHER) medium without glucose and supplemented only with 1% penicillin-streptomycin (DUTSCHER). Anidulafungin or micafungin dissolved in dimethyl sulfoxide (DMSO) is then added to each well at the desired concentration, resulting in a maximum of 1% DMSO, and the plates are placed under hypoxia at <1% 02 and 5% CO2 at 37° C. for 24 hours of culture. Each compound was tested in a concentration range.
After 24 hours, the growth medium is changed and replaced by a richer medium, DMEM (DUTSCHER) at 1 g/L glucose and 2% FBS (INNOPROT) and 1% penicillin-streptomycin (DUTSCHER). These media will have been pre-equilibrated at 37° C. in advance. The cells are then returned to culture at 37° C. under 20% 02 and 5% CO2 for 22h.
After 22 hours of reoxygenation, the potential protective effect of anidulafungin or micafungin is measured by a cell viability test using calcein AM (CORNING), which is a dye substrate. The calcein AM can easily cross the cell membrane of the viable cells. The AM ester groups mask the part of the molecule that chelates calcium. Once inside the cells, the (non-fluorescent) calcein AM is hydrolyzed to (fluorescent) calcein by endogenous esterases. The resulting calcein molecule binds to calcium inside the cell and remains trapped inside the cell. These molecules emit strong green fluorescence when subjected to […] of a particular wavelength (495 nm). Since dead cells lack esterase activity, only living cells are labelled.
This cell viability test is performed in two steps. […]

Compound: CCCCCOc1ccc(-c2cc(-c3ccc(C(=O)N[C@H]4C[C@@H](O)[C@@H](O)NC(=O)[C@@H]5[C@@H](O)[C@@H](C)CN5C(=O)[C@H]([C@H](O)CC(N)=O)NC(=O)[C@H]([C@H](O)[C@@H](O)c5ccc(O)c(OS(=O)(=O)O)c5)NC(=O)[C@@H]5C[C@@H](O)CN5C(=O)[C@H]([C@@H](C)O)NC4=O)cc3)no2)cc1 [Micafungin, {5-[(1S,2S)-2-[(3S,6S,9S,11R,15S,18S,20R,21R,24S,25S,26S)-3-[(1R)-2-carbamoyl-1-hydroxyethyl]-11,20,21,25-tetrahydroxy-15-[(1R)-1-hydroxyethyl]-26-methyl-2,5,8,14,17,23-hexaoxo-18-[(4-{5-[4-(pentyloxy)phenyl]-1,2-oxazol-3-yl}benzene)amido]-1,4,7,13,16,22-hexaazatricyclo[22.3.0.0]heptacosan-6-yl]-1,2-dihydroxyethyl]-2-hydroxyphenyl}oxidanesulfonic acid] (X1-[Orn(4R-OH,5R-OH)]T[Hyp][hTyr(3S-OH,4S-OH,3'-OSO3H)][Gln(3R-OH)][Pro(3S-OH,4S-Me)]; lactam 1-C)
- Globalfluo assay 1 ([Micafungin] log μM 0): 11119980 arbitrary units
- Globalfluo assay 2 ([Micafungin] log μM 0): 10122420 arbitrary units
- Globalfluo assay 3 ([Micafungin] log μM 0): 9942897 arbitrary units
- Mean globalfluo ([Micafungin] log μM 0): 10395099 arbitrary units
- Survival rate (%) ([Micafungin] log μM 0): 2%
- Globalfluo assay 1 ([Micafungin] log μM 0.4771213): 10184240 arbitrary units
- Globalfluo assay 2 ([Micafungin] log μM 0.4771213): 11122790 arbitrary units
- Globalfluo assay 3 ([Micafungin] log μM 0.4771213): 12211830 arbitrary units
- Mean globalfluo ([Micafungin] log μM 0.4771213): 11172953 arbitrary units
- Survival rate (%) ([Micafungin] log μM 0.4771213): 6%
- Globalfluo assay 1 ([Micafungin] log μM 0.7781513): 12145620 arbitrary units
- Globalfluo assay 2 ([Micafungin] log μM 0.7781513): 12627660 arbitrary units
- Globalfluo assay 3 ([Micafungin] log μM 0.7781513): 12964960 arbitrary units
- Mean globalfluo ([Micafungin] log μM 0.7781513): 12579413 arbitrary units
- Survival rate (%) ([Micafungin] log μM 0.7781513): 14%
- Globalfluo assay 1 ([Micafungin] log μM 0.90309): 12128260 arbitrary units
- Globalfluo assay 2 ([Micafungin] log μM 0.90309): 10787240 arbitrary units
- Globalfluo assay 3 ([Micafungin] log μM 0.90309): 13139350 arbitrary units
- Mean globalfluo ([Micafungin] log μM 0.90309): 12018283 arbitrary units
- Survival rate (%) ([Micafungin] log μM 0.90309): 11%
- Globalfluo assay 1 ([Micafungin] log μM 1): 15956640 arbitrary units
- Globalfluo assay 2 ([Micafungin] log μM 1): 14291510 arbitrary units
- Globalfluo assay 3 ([Micafungin] log μM 1): 16904820 arbitrary units
- Mean globalfluo ([Micafungin] log μM 1): 15717657 arbitrary units
- Survival rate (%) ([Micafungin] log μM 1): 32%
- Globalfluo assay 1 ([Micafungin] log μM 1.079181): 12974980 arbitrary units
- Globalfluo assay 2 ([Micafungin] log μM 1.079181): 13357070 arbitrary units
- Globalfluo assay 3 ([Micafungin] log μM 1.079181): 13693180 arbitrary units
- Mean globalfluo ([Micafungin] log μM 1.079181): 13341743 arbitrary units
- Survival rate (%) ([Micafungin] log μM 1.079181): 18%
- Globalfluo assay 1 ([Micafungin] log μM 1.176091): 15116230 arbitrary units
- Globalfluo assay 2 ([Micafungin] log μM 1.176091): 14430130 arbitrary units
- Globalfluo assay 3 ([Micafungin] log μM 1.176091): 15740520 arbitrary units
- Mean globalfluo ([Micafungin] log μM 1.176091): 15095627 arbitrary units
- Survival rate (%) ([Micafungin] log μM 1.176091): 28%
- Globalfluo assay 1 ([Micafungin] log μM 1.30103): 11900350 arbitrary units
- Globalfluo assay 2 ([Micafungin] log μM 1.30103): 13780590 arbitrary units
- Globalfluo assay 3 ([Micafungin] log μM 1.30103): 15553770 arbitrary units
- Mean globalfluo ([Micafungin] log μM 1.30103): 13744903 arbitrary units
- Survival rate (%) ([Micafungin] log μM 1.30103): 21%
- Globalfluo assay 1 ([Micafungin] log μM 1.477121): 14577460 arbitrary units
- Globalfluo assay 2 ([Micafungin] log μM 1.477121): 14402140 arbitrary units
- Globalfluo assay 3 ([Micafungin] log μM 1.477121): 13825080 arbitrary units
- Mean globalfluo ([Micafungin] log μM 1.477121): 14268227 arbitrary units
- Survival rate (%) ([Micafungin] log μM 1.477121): 24%
- Globalfluo assay 1 ([Micafungin] log μM −0.5228788): 9708125 arbitrary units
- Globalfluo assay 2 ([Micafungin] log μM −0.5228788): 10748420 arbitrary units
- Globalfluo assay 3 ([Micafungin] log μM −0.5228788): 10103750 arbitrary units
- Mean globalfluo ([Micafungin] log μM −0.5228788): 10186765 arbitrary units
- Survival rate (%) ([Micafungin] log μM −0.5228788): 1%
- Globalfluo assay 1 ([Micafungin] log μM −1): 12091240 arbitrary units
- Globalfluo assay 2 ([Micafungin] log μM −1): 10337500 arbitrary units
- Globalfluo assay 3 ([Micafungin] log μM −1): 9946542 arbitrary units
- Mean globalfluo ([Micafungin] log μM −1): 10791761 arbitrary units
- Survival rate (%) ([Micafungin] log μM −1): 4%
- Globalfluo assay 1 ([Micafungin] log μM −2): 9536623 arbitrary units
- Globalfluo assay 2 ([Micafungin] log μM −2): 9993250 arbitrary units
- Globalfluo assay 3 ([Micafungin] log μM −2): 10712930 arbitrary units
- Mean globalfluo ([Micafungin] log μM −2): 10080934 arbitrary units
- Survival rate (%) ([Micafungin] log μM −2): 0%
